# Measured values published in paper PMC11249646, “Small-Molecule Disruptors of the Interaction between Calcium- and Integrin-Binding Protein 1 and Integrin αIIbβ3 as Novel Antiplatelet Agents” (ACS Pharmacology & Translational Science, 2024).
# Like-named read-outs stand apart in the source and are kept apart here.
# Key:
# [1] = biological target: T1, GST-CIB1 : F-scrambled peptide (Homo sapiens, UniProt Q99828); assay: FP scrambled-peptide counter screen, 1536-well format; type: binding; settings: for Curve Class (counterscreen) / COUNTERSCREEN Curve Class: qHTS curve class
# T1 construct: made in house; host or cells: BL-21 plus RIL cells (E. coli)
# T1 sequence (Q99828 1-191): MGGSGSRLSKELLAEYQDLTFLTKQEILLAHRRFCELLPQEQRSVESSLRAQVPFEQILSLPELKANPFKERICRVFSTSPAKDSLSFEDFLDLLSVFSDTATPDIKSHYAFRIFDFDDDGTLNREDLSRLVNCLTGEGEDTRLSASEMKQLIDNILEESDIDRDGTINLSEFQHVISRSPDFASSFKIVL
# [2] = biological target: T2, CIB1 and αIIb interaction (CIB1-GST : F-αIIb peptide) (Homo sapiens, UniProt Q99828); assay: FP assay, 1536-well qHTS format (primary and confirmatory screen); type: binding; settings: for Curve Class (confirmatory screen) / CONFIRMATORY SCREEN Curve Class: qHTS curve class
# T2 construct: made in house; host or cells: BL-21 plus RIL cells (E. coli)
# T2 sequence (Q99828 1-191): T1 sequence (Q99828 1-191)
# [3] = Table S3, counterscreen, YES/NO call
# [4] = Table S3, counterscreen, a negative sign marks inhibitory curves
# [5] = Table S3, counterscreen, negative = inhibition
# [6] = Table S3, counterscreen, read-out: IC50 [μM] (counterscreen)
# [7] = Table S3, confirmatory screen, a negative sign marks inhibitory curves
# [8] = Table S3, confirmatory screen, negative = inhibition
# [9] = qHTS FP screen hits, Table S2, negative = inhibition
# [10] = qHTS FP screen hits, Table S2, one class per curve where COUNT > 1, negative sign = inhibitory curve
# [11] = qHTS FP screen hits, Table S2, read-out: IC50
# [12] = qHTS primary screen hits, Table S2, negative = inhibition
# [13] = qHTS primary screen hits, Table S2, negative sign = inhibitory curve, several classes where COUNT > 1
# [14] = qHTS primary screen hits, Table S2, read-out: IC50
# [15] = scrambled-peptide counterscreen
# [16] = confirmatory screen, negative sign = inhibitory curve
Compound,"Curve Class (counterscreen) [1, 4]","Efficacy (%) (counterscreen) [1, 5]","IC50 [1, 6] [µM]","Curve Class (confirmatory screen) [2, 7]","Efficacy (%) (confirmatory screen) [2, 8]","Efficacy (%) [2, 9] [%]","IC50 [2, 11] [µM]","Efficacy (%) [2, 12] [%]","Curve Class [2, 13]","IC50 [2, 14] [µM]",further results
O=C(O)C(F)(F)F.Oc1cccc2cc(N3CCCC3)cnc12 [NCGC00188744-01],-1.4,-34,17.8,4,-14,-48,28.2,–,–,–,"Confirm? (counterscreen) [1, 3]: YES; Curve Class [2, 10]: -2.2"
CN(C)c1cnc2c(O)cccc2c1.O=C(O)C(F)(F)F [NCGC00188745-01],–,–,–,–,–,–,–,-53,-2.2,44.7,COUNTERSCREEN Efficacy (%) ([1]; counterscreen): -32%; COUNTERSCREEN Curve Class ([1]; counterscreen): 4; CONFIRMATORY SCREEN Efficacy (%) ([2]; confirmatory screen): -19%; CONFIRMATORY SCREEN Curve Class ([2]; confirmatory screen): 4
O=C(O)C(F)(F)F.Oc1cccc2cc(C3CC3)cnc12 [NCGC00188747-01],4,-25,–,4,-17,-36,31.6,–,–,–,"Curve Class [2, 10]: -1.2"
O=C(O)C(F)(F)F.O=C1CCCC2=C1C(c1ccncc1)N=C(Nc1nc3ccccc3o1)N2 (stereo not shown) [NCGC00188839-01],4,-13,–,4,-25,–,–,-44,-2.2,28.2,–
O=C(O)C(F)(F)F.O=C1CCCC2=C1C(c1ncccc1C(F)(F)F)N=C(Nc1nc3ccccc3o1)N2 (stereo not shown) [NCGC00189070-01],-2.4,-41,28.2,4,-19,–,–,-47,-2.2,39.8,"Confirm? (counterscreen) [1, 3]: YES"
CN(C)[C@H]1CCN(c2cccc(Nc3nn4c(=O)c5ccccc5nc4s3)c2)C1.O=C(O)C(F)(F)F [NCGC00189222-02],–,–,–,–,–,–,–,-39,–,32.8,"COUNTERSCREEN Efficacy (%) [1, 15]: -79%; COUNTERSCREEN Confirm? ([1]; scrambled-peptide counterscreen, YES/NO call): YES; COUNTERSCREEN Curve Class [1, 15]: -2.2; IC50 ([1]; scrambled-peptide counterscreen, read-out: COUNTERSCREEN IC50): 56.2 µM; CONFIRMATORY SCREEN Confirm? ([2]; confirmatory screen, YES/NO call): YES; CONFIRMATORY SCREEN Curve Class [2, 16]: -2.4; CONFIRMATORY SCREEN Efficacy (%) ([2]; confirmatory screen, negative = inhibition): -54%"
Cc1ccc(CNc2ncnc3ccc(-c4ccc([C@@H](C)O)o4)cc23)o1 [NCGC00189251-01],–,–,–,–,–,–,–,–,–,–,"Efficacy (%) (counterscreen) ([1]; counterscreen): -36%; Curve Class (counterscreen) ([1]; counterscreen, negative sign = inhibitory curve): -2.2; IC50 ([1]; counterscreen, read-out: IC50 [μM] (counterscreen)): 39.8 µM; Efficacy (%) (confirmatory screen) ([2]; confirmatory screen): -58%; Confirm? (confirmatory screen) ([2]; confirmatory screen, YES/NO): YES; Curve Class (confirmatory screen) [2, 16]: -1.2; IC50 ([2]; confirmatory screen, read-out: IC50 [μM] (confirmatory screen)): 28.2 µM"
O=C(O)C(F)(F)F.O=C1CCCC2=C1C(c1cccnc1Br)N=C(Nc1nc3ccccc3o1)N2 (stereo not shown) [NCGC00189281-01],–,–,–,–,–,–,–,-26,–,25.1,"COUNTERSCREEN Efficacy (%) ([1]; counterscreen): 0%; COUNTERSCREEN Curve Class ([1]; counterscreen): 4; CONFIRMATORY SCREEN Efficacy (%) ([2]; confirmatory screen): -31%; CONFIRMATORY SCREEN Curve Class ([2]; confirmatory screen): 4; Curve Class ([2]; qHTS primary screen hits, Table S2, negative sign = inhibitory curve): -2.4"
Cc1ccsc1C1N=C(Nc2nc3ccccc3o2)NC2=C1C(=O)CCC2.O=C(O)C(F)(F)F (stereo not shown) [NCGC00189283-01],-2.4,-34,63.1,4,-22,-28,7.9,–,–,–,"Confirm? (counterscreen) [1, 3]: YES"
COC(=O)c1ccc(O)c2ncc(-c3ccc(C(=O)N4CCNCC4)cc3)cc12.O=C(O)C(F)(F)F [NCGC00189509-01],–,–,–,–,–,–,–,-45,-1.2,28.2,COUNTERSCREEN Efficacy (%) ([1]; counterscreen): -25%; COUNTERSCREEN Curve Class ([1]; counterscreen): 4; CONFIRMATORY SCREEN Efficacy (%) ([2]; confirmatory screen): -16%; CONFIRMATORY SCREEN Curve Class ([2]; confirmatory screen): 4
COC(=O)c1ccc(O)c2ncc(-c3ccc(C(=O)NCCCN(C)C)cc3)cc12.O=C(O)C(F)(F)F [NCGC00189510-01],3,226,89.1,4,-26,-71,44.7,–,–,–,"Curve Class [2, 10]: -2.2"
